# Laboratory results as given in US12168652B2, “Neuromuscular blocking agents” (The Curators of the University of Missouri, priority 2018, dated 2024).
# “Also recorded” adds a separate entry of the source.
# Key:
# [1] = system: rat phrenic nerve, hemi-diaphragm preparation; assay: Rat phrenic nerve hemi-diaphragm preparation, neostigmine reversibility; settings: FIG. 8, in vitro; for neostigmine reversibility of the loss of strength (muscle weakness): 1 μM neostigmine
# Method: Male, Sprague-Dawley rats weighing 100-180 g were obtained from Envigo and euthanized by exposure to 4.5% isoflurane followed by exsanguination. Right and left hemi-diaphragms were removed and placed in oxygen bubbled, cold saline until use. The saline contained, in mM, 140 NaCl, 5 KCl, 1.6 CaCl2·6H2O, 1 NaH2PO4, 6 NaHCO3, 5 D-glucose, 10 HEPES, pH 7.2 adjusted with 1 N NaOH, and was bubbled with 100% oxygen at 22° C. The costal cartilage of the hemi-diaphragm was secured to the floor of a 20 mL volume chamber with a metal hook and the crural end attached to a metal hook and thread leading to a force transducer (iWorx Systems, Dover, NH) and a data acquisition program (Labscribe). The phrenic nerve was introduced into a suction electrode and stimulated (pulse width=0.5 msec, supramaximal voltage=1 V) with a train of four, i.e., four stimuli in two seconds, repeated every minute. The first pulse, T1, was used as a measure of muscle strength. […]
# In the figure CONTROL is the force of contraction before addition of test substances, TEST is the force after the addition of test substances, NEOSTIG is the force of contraction after the addition of 1 μM neostigmine, ROC is rocuronium, and SUC is succinylcholine.
# [2] = target: T1, adult, human muscle, nicotinic acetylcholine receptor (Homo sapiens, UniProt P02708+P11230+Q04844+Q07001); assay: Patch clamp electrophysiology in transfected HEK-293 cells; type: cell-based; settings: outside-out patch, 10 μM compound, 300 μM acetylcholine, -50 mV; for competition with acetylcholine at the receptor (summary graph): FIG. 9B
# T1 construct: expressed in transfected cells; host or cells: HEK-293
# Method: Patch clamp electrophysiology: HEK-293 cells were transfected with the cDNA for adult, human muscle acetylcholine receptors and prepared for patch clamp recording as described previously. Immediately before the experiment, the culture medium was replace with an extracellular solution (ECS) contains 150 mM NaCl, 5.6 mM KCl, 1.8 mM CaCl2, 1.0 mM MgCl2, and 10 mM HEPES, pH 7.3. Patch pipettes filled with a solution consisting of 140 mM KCl, 5 mM EGTA, 5 mM MgCl2, and 10 mM HEPES, pH 7.3, had resistances of 3 to 4 MΩ. An outside-out patch with a seal resistance of >2 GΩ was excised from a cell and moved into position at the outflow of a HSSE-2 rapid perfusion system (ALA Scientific Instruments, Westbury, NY). The patch was rapidly and transiently perfused with 300 μM acetylcholine to activate >95% of the channels at a holding potential of −50 mV. This was the control trace; the figures show the average of 5 control traces. Subsequently, the same patch was used to test for agonist activity by the carborane compounds by switching to a reservoir containing 300-1000 μM of the compound, repeated 5 times. To test for antagonism, the patch was equilibrated with 10 μM of the compound for >3 s followed by rapid perfusion of 300 μM acetylcholine+compound. Each series of traces using a compound was followed a return to control conditions (recovery) to determine that the control current hadn't changed by more than 20%. The peak current for each series of traces was calculated. The decrease in peak current represented a combination of competitive and open-channel block by the compound. The results are illustrated in FIGS. 9A and 9B.
# [3] = system: mice; settings: FIG. 6; dose response
Compound,neostigmine reversibility of the loss of strength (muscle weakness) [1],mechanism of action (depolarizing or non-depolarizing) from neostigmine reversal [1],competition with acetylcholine at the receptor (single compound traces) ([2]; FIG. 9A),competition with acetylcholine at the receptor (summary graph) [2],relative potency for loss of mouse grip strength as a function of dose injected [3]
"C=CC[N+]1([C@H]2C[C@H]3[C@@H]4CC[C@H]5C[C@H](O)[C@@H](N6CCOCC6)C[C@]5(C)[C@H]4CC[C@]3(C)[C@H]2OC(C)=O)CCCC1 [rocuronium, Rocuronium bromide, reference compound]",reversed by neostigmine,,,,
"1,12-bis(N, N, N-trimethylpropan-1-aminium)-1,12-closo-carborane di-iodide [compound 3]",reversed by neostigmine,non-depolarizing NMBA; also recorded: non-depolarizers,competes reversibly with acetylcholine,compete with acetylcholine,more potent than compound 1
"1,7-bis(N, N, N-trimethylpropan-1-aminium)-1,7-closo-carborane di-iodide [compound 2]",reversed by neostigmine,non-depolarizing NMBA; also recorded: non-depolarizers,,compete with acetylcholine,
"1,2-bis(N, N, N-trimethylpropan-1-aminium)-1,2-closo-carborane di-iodide [compound 1]",reversed by neostigmine,non-depolarizing NMBA; also recorded: non-depolarizers,,compete with acetylcholine,
"C[N+](C)(C)CCOC(=O)CCC(=O)OCC[N+](C)(C)C [succinylcholine, succinylcholine chloride, reference compound]",not reversed by neostigmine,,,,
